The values below come from US10316017B2, “COT modulators and methods of use thereof” (Gilead Sciences, Inc., priority 2015, dated 2019).

pEC50, pIC50: −log10 of the molar value. Some results are limits rather than exact numbers.

For test [1], the system named is TNFα production in LPS-stimulated human monocytes. Put plainly: Cot Monocyte TNFα Cell Based Assay. Particulars: Homo sapiens, Monocyte, TNFα in LPS-stimulated human monocytes; read-out: EC50 TNF. In short, it runs like this:
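Percent-of-control values derive from TR-FRET ratios of TNFα in spun-down media, referenced to unstimulated and LPS-stimulated wells. Exposure: 1 h compound preincubation, then 50 pg/ml LPS for 4 h, both at 37 °C, with 0.5% final DMSO.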

In test [2] the target is T1, human Cot catalytic domain (30-397 amino acids) (Homo sapiens, UniProt P41279).
T1 construct: Purified recombinant human Cot catalytic domain (30-397 amino acids) was purchased from Cama Biosciences; purchased Cama Biosciences (so in the source)
T1 sequence (P41279 30-397): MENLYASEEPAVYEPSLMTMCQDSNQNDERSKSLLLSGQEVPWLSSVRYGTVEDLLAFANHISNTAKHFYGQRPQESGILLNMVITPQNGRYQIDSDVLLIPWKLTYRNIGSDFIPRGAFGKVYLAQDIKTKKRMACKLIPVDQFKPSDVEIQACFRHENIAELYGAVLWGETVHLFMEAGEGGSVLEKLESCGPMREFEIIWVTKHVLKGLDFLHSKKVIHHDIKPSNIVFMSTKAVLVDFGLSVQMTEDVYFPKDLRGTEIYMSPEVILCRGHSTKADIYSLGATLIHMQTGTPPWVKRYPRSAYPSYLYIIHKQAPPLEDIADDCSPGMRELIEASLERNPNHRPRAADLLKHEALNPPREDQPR
Nature of the test: High Throughput Cot Biochemical Assay (KinEASE TR-FRET). Particulars: Cot KinEASE TR-FRET (HTRF) biochemical assay, 400 μM ATP; read-out: IC50 HTRF. In short, it runs like this:
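Phosphorylation of 1 μM XL665-STK3 peptide by 5 nM Cot catalytic domain was measured by time-resolved FRET using a europium […] antibody. ATP was 400 μM; buffer was 10 mM MOPS pH 7.0 with Mg2+ and DTT.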

As usually defined, the pEC50 is the negative decadic logarithm of the EC50, by convention in mol/L. As a reminder, the pIC50 is the negative decadic logarithm of the IC50, by convention in mol/L. Take `[2H][C@@](Nc1cc(Cl)c2ncc(C#N)c(NCC(C)(C)C)c2c1)(c1cn(CC(=O)O)nn1)c1ccccc1Cl` [Example 108, (S)-2-(4-(((8-chloro-3-cyano-4-(neopentylamino)quinolin-6-yl)amino)(2-chlorophenyl)methyl-d)-1H-1,2,3-triazol-1-yl)acetic acid]: the negative logarithm of the EC50 (pEC50) in test [1] is below 6.00. Further, the negative logarithm of the IC50 (pIC50) in test [2] is 7.32.
Taken in the same sequence, the figures for `[2H][C@](Nc1cc(Cl)c2ncc(C#N)c(NCC(C)(C)C)c2c1)(c1cn(C(C)(C)C)nn1)c1ccccc1Cl` [Example 109, 6-(((1-(tert-butyl)-1H-1,2,3-triazol-4-yl) (2-chlorophenyl)methyl-d)amino)-8-chloro-4-(neopentylamino) quinoline-3-carbonitrile] were 6.68 and 7.77.
Taken in the same sequence, the figures for `[2H][C@](Nc1cc(Cl)c2ncc(C#N)c(Nc3cccc(Cl)c3OC3CC3)c2c1)(c1ccc(F)cc1)c1cn(C2CC2)nn1` [Example 110, (S)-8-chloro-4-((3-chloro-2-cyclopropoxyphenyl)amino)-6-(((1-cyclopropyl-1H-1,2,3-triazol-4-yl)(4-fluorophenyl)methyl-d)amino) quinoline-3-carbonitrile] were 6.88 and 7.80.
Taken in the same sequence, the figures for `[2H][C@](Nc1cc(Cl)c2ncc(C#N)c(N[C@@H](c3ccccc3)[C@@H]3C[C@H]3C#N)c2c1)(c1ccc(F)cc1)c1cn(C2CC2)nn1` [Example 111, 8-chloro-4-(((R)-((1R,2R)-2-cyanocyclopropyl) (phenyl)methyl)amino)-6-(((S)-(1-cyclopropyl-1H-1,2,3-triazol-4-yl)(4-fluorophenyl)methyl-d)amino)quinoline-3-carbonitrile] were 6.02 and 7.14.
Turning to `CC(C)(C)CNc1c(C#N)cnc2c(Cl)cc(N[C@H](c3cn(C4CC4)nn3)c3ccccc3CO)cc12` [Example 114, (S)-8-chloro-6-(((1-cyclopropyl-1H-1,2,3-triazol-4-yl)(2-(hydroxymethyl)phenyl)methyl)amino)-4-(neopentylamino) quinoline-3-carbonitrile], in test [1], the negative logarithm of the EC50 (pEC50) was 6.72. The pIC50 in test [2] is 8.22.
As to `CC[C@@H](Nc1c(C#N)cnc2c(Cl)cc(N[C@@H](c3ccc(F)cc3)c3cn(CC(=O)O)nn3)cc12)c1ccccc1` [Example 115, 2-(4-((S)-((8-chloro-3-cyano-4-(((R)-1-phenylpropyl)amino)quinolin-6-yl)amino)(4-fluorophenyl)methyl)-1H-1,2,3-triazol-1-yl) acetic acid], the negative-log EC50 (pEC50) in test [1] is below 5.00. In addition, the negative-log IC50 (pIC50) in test [2] is 8.52.
In the case of `[2H][C@](Nc1cc(Cl)c2ncc(C#N)c(Nc3ccc(F)c(Cl)c3)c2c1)(c1ccc(F)cc1)c1cn(CC(=O)O)nn1` [Example 116, (S)-2-(4-(((8-chloro-4-((3-chloro-4-fluorophenyl)amino)-3-cyanoquinolin-6-yl)amino)(4-fluorophenyl)methyl-d)-1H-1,2,3-triazol-1-yl)acetic acid], the negative-log EC50 (pEC50) in test [1] is below 5.00. Also, the negative-log IC50 (pIC50) in test [2] was 7.85.
`[2H][C@](Nc1cc(Cl)c2ncc(C#N)c(NCC(C)(C)C)c2c1)(c1cn(CC#N)nn1)c1ccccc1Cl` [Example 119, 8-chloro-6-(((2-chlorophenyl)(1-(cyanomethyl)-1H-1,2,3-triazol-4-yl)methyl-d)amino)-4-(neopentylamino) quinoline-3-carbonitrile]: the negative-log EC50 (pEC50) in test [1] is 6.78. Besides, in test [2], the pIC50 was 7.59.
Regarding `CC(C)(C)CNc1c(C#N)cnc2c(Cl)cc(N[C@H](c3cn(C4CC4)nn3)c3ccccc3OC(F)(F)F)cc12` [Example 122, (S)-8-chloro-6-(((1-cyclopropyl-1H-1,2,3-triazol-4-yl)(2-(trifluoromethoxy)phenyl)methyl)amino)-4-(neopentylamino) quinoline-3-carbonitrile], the pEC50 in test [1] was 6.70. Besides, the pIC50 in test [2] was 7.72.
The matching figures for `[2H][C@@](Nc1cc(Cl)c2ncc(C#N)c(N[C@@H]3[C@@H]4CCC[C@@H]43)c2c1)(c1cn(C2CC2)nn1)c1ccccc1Cl` [Example 124, 4-(((1R,5S,6s)-bicyclo [3.1.0]hexan-6-yl)amino)-8-chloro-6-(((2-chlorophenyl)(1-cyclopropyl-1H-1,2,3-triazol-4-yl)methyl-d)amino) quinoline-3-carbonitrile]: 6.66 and 7.85.
The matching figures for `[2H][C@](Nc1cc(Cl)c2ncc(C#N)c(Nc3ccccc3OC(F)(F)F)c2c1)(c1ccc(F)cc1)c1cn(C2CC2)nn1` [Example 126, (S)-8-chloro-6-(((1-cyclopropyl-1H-1,2,3-triazol-4-yl)(4-fluorophenyl)methyl-d)amino)-4-((2-(trifluoromethoxy)phenyl)amino)quinoline-3-carbonitrile]: below 5.00 and 6.40.
The matching figures for `[2H][C@@](Nc1cc(C#N)c2ncc(C#N)c(NC3CCOCC3(C)C)c2c1)(c1cn(C2CC2)nn1)c1ccccc1Cl` (stereo partly drawn) [Example 128, 6-(((S)-(2-chlorophenyl) (1-cyclopropyl-1H-1,2,3-triazol-4-yl)methyl-d)amino)-4-((3,3-dimethyltetrahydro-2H-pyran-4-yl)amino)quinoline-3,8-dicarbonitrile]: 7.27 and 8.70.
For `[2H][C@@](Nc1cc(C#N)c2ncc(C#N)c(NCC(C)(C)C)c2c1)(c1cn(C2(C(F)(F)F)CC2)nn1)c1ccccc1Cl` [Example 129, (S)-6-(((2-chlorophenyl) (1-(1-(trifluoromethyl)cyclopropyl)-1H-1,2,3-triazol-4-yl)methyl-d)amino)-4-(neopentylamino) quinoline-3,8-dicarbonitrile], in test [1], the pEC50 was 6.46. Further, the negative-log IC50 (pIC50) in test [2] is 7.70.
Taken in the same sequence, the figures for `[2H][C@](Nc1cc(C#N)c2ncc(C#N)c(NCC(C)(C)C)c2c1)(c1ccc(F)cc1)c1cn(C2(C(F)(F)F)CC2)nn1` [Example 130, (S)-6-(((4-fluorophenyl) (1-(1-(trifluoromethyl)cyclopropyl)-1H-1,2,3-triazol-4-yl)methyl-d)amino)-4-(neopentylamino) quinoline-3,8-dicarbonitrile] were 6.71 and 7.64.
The matching figures for `[2H][C@](Nc1cc(C#N)c2ncc(C#N)c(N[C@H](CC)c3ccccc3)c2c1)(c1ccc(F)cc1)c1cn(C2(C(F)(F)F)CC2)nn1` [Example 132, 6-(((S)-(4-fluorophenyl) (1-(1-(trifluoromethyl)cyclopropyl)-1H-1,2,3-triazol-4-yl)methyl-d)amino)-4-(((R)-1-phenylpropyl)amino)quinoline-3,8-dicarbonitrile]: 6.85 and 7.85.
The matching figures for `[2H][C@](Nc1ccc2ncc(C#N)c(NCC(C)(C)C)c2c1)(c1ccc(F)cc1)c1cn(C2CC2)nn1` [Example 133, 6-(((1-cyclopropyl-1H-1,2,3-triazol-4-yl)(4-fluorophenyl)methyl-d)amino)-4-(neopentylamino) quinoline-3-carbonitrile]: 6.50 and 7.68.
As for `[2H][C@](Nc1cc(Cl)c2ncc(C#N)c(NCC(C)(C)CC#N)c2c1)(c1ccc(F)cc1)c1cn(C2CC2)nn1` [Example 134, (S)-8-chloro-4-((3-cyano-2,2-dimethylpropyl)amino)-6-(((1-cyclopropyl-1H-1,2,3-triazol-4-yl)(4-fluorophenyl)methyl-d)amino)quinoline-3-carbonitrile], the negative-log EC50 (pEC50) in test [1] was 6.85. Moreover, the negative logarithm of the IC50 (pIC50) in test [2] was 8.22.
Taken in the same sequence, the figures for `[2H][C@](Nc1cc(Cl)c2ncc(C#N)c(NC3(C4CC4)CC3)c2c1)(c1ccc(F)cc1)c1cn(C2CC2)nn1` [Example 135, (S)-4-([1,1'-bi(cyclopropan)]-1-ylamino)-8-chloro-6-(((1-cyclopropyl-1H-1,2,3-triazol-4-yl)(4-fluorophenyl)methyl-d)amino)quinoline-3-carbonitrile] were 5.12 and 6.02.
Taken in the same sequence, the figures for `[2H][C@@](Nc1cc(Cl)c2ncc(C#N)c(N[C@H](CCC#N)c3ccccc3)c2c1)(c1cn(C2CC2)nn1)c1cccc(C#N)c1C` [Example 136, 8-chloro-4-(((R)-3-cyano-1-phenylpropyl)amino)-6-(((S)-(3-cyano-2-methylphenyl)(1-cyclopropyl-1H-1,2,3-triazol-4-yl)methyl-d)amino) quinoline-3-carbonitrile] were 7.70 and 9.00.
Taken in the same sequence, the figures for `[2H][C@](Nc1cc(-c2cnn(C)c2)c2ncc(C#N)c(NCC(C)(C)C)c2c1)(c1ccc(F)cc1)c1cn(C2CC2)nn1` [Example 137, (S)-6-(((1-cyclopropyl-1H-1,2,3-triazol-4-yl)(4-fluorophenyl)methyl-d)amino)-8-(1-methyl-1H-pyrazol-4-yl)-4-(neopentylamino) quinoline-3-carbonitrile] were 5.36 and 6.22.
Take `[2H][C@](Nc1cc(C(=O)N(C)C)c2ncc(C#N)c(NCC(C)(C)C)c2c1)(c1ccc(F)cc1)c1cn(C2CC2)nn1` [Example 138, (S)-3-cyano-6-(((1-cyclopropyl-1H-1,2,3-triazol-4-yl) (4-fluorophenyl)methyl-d)amino)-N,N-dimethyl-4-(neopentylamino) quinoline-8-carboxamide]: the negative-log EC50 (pEC50) in test [1] is 5.87. Moreover, in test [2], the pIC50 is 6.86.
